Experimental data from patent publication US9408856B2, “Topical steroidal formulations” (Temple University—Of The Commonwealth System of Higher …, priority 2008, dated 2016).
Where “and” joins values, the source holds several entries; their conditions need not be identical. Identical values can stand only once.

Columns and labels:
[1] = system: TPA-stimulated epidermal DNA synthesis in mouse epidermis; assay: TPA-induced epidermal DNA synthesis in mouse epidermis, transdermal fluasterone; assay type: in vivo, CD-1 mice; settings: 20 h
[2] = system: TPA-stimulated epidermal DNA synthesis in mouse epidermis; assay: TPA-induced epidermal DNA synthesis in mouse epidermis, oral fluasterone; assay type: in vivo, CD-1 mice; settings: for cpm/μg DNA / μg DNA: Table 4, 20 h, group mean
Procedure: In dose-response experiments the anti-hyperplastic efficacy of fluasterone in TPA-treated mouse epidermis to determine bioavailability following different routes of administration was measured. Mice were treated with a single dose of fluasterone (either orally, subcutaneously, or transdermally) followed by a single application of TPA to the shaved back one hour latter. In case of transdermal administration, fluasterone is applied in a topical formulation to the shaved abdomen to allow for systemic absorption to the back of the animal. Twenty hours after TPA application, the mice are injected with 60 μCi of [3H] thymidine, sacrificed 20 minutes later, and a 2×2 cm2 of skin from the shaved back is excised and processed for the determination of the amount of [3H] thymidine incorporated per unit of epidermal DNA. (Hennings et. al., Cancer Res. 28:543-552, 1968).
Fluasterone suspensions were prepared using sesame oil as vehicle. Micronized fluasterone was obtained from Pharmaceutics International, Inc. Five suspensions were prepared—100 mg/kg (13 mg/mL), 200 mg/kg (26.5 mg/mL), 400 mg/kg (52.4 mg/mL), 800 mg/kg (105.5 mg/mL), and 1200 mg/kg (158.3 mg/mL). The fluasterone for each suspension was weighed, placed into a plastic vial, and the required volume of sesame oil was added to the vial. The fluasterone was suspended in the sesame oil with the use of a Tekmar Tissumizer. Magnetic stirrer bars were added to the various suspensions which were stirred on a magnetic stirrer prior to treatment. Control and TPA groups received sesame oil alone.
Female CD-1 mice were obtained from Charles River Laboratories, Wilmington, Mass. at 35-37 days of age.
The mice were housed three per cage in plastic shoebox cages on Alphacel bedding with 12 hours of alternating light and dark in the CAF Animal Facility. The mice had ad libitum access to Purina 5.015 chow and acidified tap water (pH≦2.6). The mice were shaved, weighed and distributed into groups of three. • Control The mice were treated orally with 0.2 mL of sesame oil. One hour after treatment with sesame oil, the mice were treated topically with 0.2 mL of acetone. • TPA The mice were treated orally with 0.2 mL of sesame oil. […] One hour after treatment with fluasterone, the mice were treated topically with 2 μg of TPA in 0.2 mL of acetone.
The mice were sacrificed 20 hours after treatment by an overdose of CO2. Twenty minutes prior to sacrifice, the mice were injected with 60 μCi of [^3H]thymidine (Amersham). The mice were treated with a depilatory to remove any residual hair. A 2×2 cm^2 piece of skin was excised, placed in ice water for 30 seconds, then in 55° C. water for 30 seconds, then in ice water again for 30 seconds. The epidermis was s raped off using a scalpel and the scrapings were placed into ice cold 0.4N TCA. The scrapings were homogenized using a Tekmar Tissumizer (80% power for 30 seconds). The homogenates were centrifuged for 20 minutes at 3,000×g. The precipitates were washed 3× with 0.2N TCA. The TCA was removed and the precipitates were stored at −20° C. overnight. The next day, the precipitates were washed 2× with absolute ethanol. The DNA in each sample was hydrolyzed with 0.5N TCA for 30 minutes at 90°. The tubes were centrifuged for 20 minutes at 3000×g. A 0.2 mL aliquot of each hydrolysate was counted in a LKB Rackbeta scintillation counter using Scintiverse II BD as the counting medium. DNA content was determined by the Burton diphenylamine assay.
102.7 mg of Micronized fluasterone I was weighed using a Mettler AE-50 balance, transferred to a glass scintillation vial, and homogenized in 6.0 mL of carboxymethylcellulose-Tween 80 using a Tekmar Tissumizer (200 mg/kg micronized I suspension, 200 MI). 88.4 mg of micronized fluasterone II was then weighed, transferred to a glass scintillation vial, and homogenized in 5.2 mL of CMC-Tween using a Tekmar Tissumizer (200 mg/kg micronized II suspension, 200 MII).

[3] = Cremophor EL solution, 5 mg/kg transdermal (abdomen) 1 h before 2 μg TPA (back), single mice, 5 mg/kg
[4] = Cremophor EL:ethanol (50:50 v/v) solution, 1.9 mg/kg transdermal (abdomen) 1 h before 2 μg TPA (back), single mice, 1.9 mg/kg
[5] = Cremophor EL:ethanol (50:50 v/v) solution, 2.5 mg/kg transdermal (abdomen) 1 h before 2 μg TPA (back), single mice, 2.5 mg/kg
[6] = Tween 80:ethanol (50:50 v/v) solution, 1.9 mg/kg transdermal (abdomen) 1 h before 2 μg TPA (back), single mice, 1.9 mg/kg
[7] = carbitol solution, 1.25 mg/kg transdermal (abdomen) 1 h before 2 μg TPA (back), single mice, 1.25 mg/kg
[8] = carbitol solution, 2.5 mg/kg transdermal (abdomen) 1 h before 2 μg TPA (back), single mice, 2.5 mg/kg
[9] = carbitol solution, 5 mg/kg transdermal (abdomen) 1 h before 2 μg TPA (back), single mice, 5 mg/kg
[10] = ethanol:limonene:isopropyl myristate (81:15:4) solution, 1.5 mg/kg transdermal (abdomen) 1 h before 2 μg TPA (back), single mice, 1.5 mg/kg
[11] = ethanol:limonene:isopropyl myristate (81:15:4) solution, 5 mg/kg transdermal (abdomen) 1 h before 2 μg TPA (back), single mice, 5 mg/kg
[12] = micronized suspension in ethanol:water:Tween 80 (76:19:5), 1.5 mg/kg transdermal (abdomen) 1 h before 2 μg TPA (back), single mice and group mean, 1.5 mg/kg
[13] = micronized suspension in ethanol:water:Tween 80 (76:19:5), 1.5 mg/kg transdermal (abdomen) 1 h before 2 μg TPA (back), single mice, 1.5 mg/kg
[14] = micronized suspension in ethanol:water:Tween 80 (76:19:5), 2.5 mg/kg transdermal (abdomen) 1 h before 2 μg TPA (back), single mice, 2.5 mg/kg
[15] = 100 mg/kg p.o. micronized in sesame oil 1 h before 2 μg TPA
[16] = 200 mg/kg p.o. micronized in sesame oil 1 h before 2 μg TPA
[17] = 400 mg/kg p.o. micronized in sesame oil 1 h before 2 μg TPA
[18] = 800 mg/kg p.o. micronized in sesame oil 1 h before 2 μg TPA
[19] = 1200 mg/kg p.o. micronized in sesame oil 1 h before 2 μg TPA

Structure (SMILES): C[C@]12CCCCC1=CC[C@@H]1[C@@H]2CC[C@]2(C)C(=O)[C@H](F)C[C@@H]12 [Fluasterone, 16α-fluoro-5-androsten-17-one]
- μg DNA/0.2 mL ([1]; Cremophor EL solution, 1.25 mg/kg transdermal (abdomen) 1 h before 2 μg TPA (back), single mice, 1.25 mg/kg): 28.1 μg DNA/0.2 mL and 14.9 μg DNA/0.2 mL
- cpm/μg DNA ([1]; Cremophor EL solution, 1.9 mg/kg transdermal (abdomen) 1 h before 2 μg TPA (back), single mice and group mean, 1.9 mg/kg): 161.0 cpm/μg DNA and 270.3 cpm/μg DNA and 215.7 ± 77.3 cpm/μg DNA
- μg DNA/0.2 mL ([1]; Cremophor EL solution, 1.9 mg/kg transdermal (abdomen) 1 h before 2 μg TPA (back), single mice, 1.9 mg/kg): 15.4 μg DNA/0.2 mL and 20.1 μg DNA/0.2 mL
- μg DNA/0.2 mL ([1]; Cremophor EL solution, 2.5 mg/kg transdermal (abdomen) 1 h before 2 μg TPA (back), single mice, 2.5 mg/kg): 8.6 μg DNA/0.2 mL and 10.1 μg DNA/0.2 mL
- cpm [1, 3]: 1,015 cpm and 1,686 cpm
- μg DNA/0.2 mL [1, 3]: 8.4 μg DNA/0.2 mL and 11.2 μg DNA/0.2 mL
- cpm/μg DNA ([1]; Cremophor EL:ethanol (50:50 v/v) solution, 1.9 mg/kg transdermal (abdomen) 1 h before 2 μg TPA (back), single mice and group mean, 1.9 mg/kg): 207.8 cpm/μg DNA and 160.4 cpm/μg DNA
- corrected cpm [1, 4]: 5,965 cpm and 4,025 cpm
- cpm [1, 4]: 5,990 cpm and 4,050 cpm
- μg DNA/0.2 [1, 4]: 28.7 μg DNA/0.2 and 25.1 μg DNA/0.2
- cpm/μg DNA ([1]; Cremophor EL:ethanol (50:50 v/v) solution, 2.5 mg/kg transdermal (abdomen) 1 h before 2 μg TPA (back), single mice and group mean, 2.5 mg/kg): 423.2 cpm/μg DNA and 410.7 cpm/μg DNA and 462.8 cpm/μg DNA
- corrected cpm [1, 5]: 7,068 cpm and 6,243 cpm and 6,341 cpm
- cpm [1, 5]: 7,093 cpm and 6,268 cpm and 6,366 cpm
- μg DNA/0.2 [1, 5]: 16.7 μg DNA/0.2 and 15.2 μg DNA/0.2 and 13.7 μg DNA/0.2
- cpm/μg DNA ([1]; Cremophor EL:ethanol (50:50 v/v) solution, 5 mg/kg transdermal (abdomen) 1 h before 2 μg TPA (back), single mice and group mean, 5 mg/kg): 125.1 cpm/μg DNA and 222.9 cpm/μg DNA and 206.4 cpm/μg DNA
- μg DNA/0.2 ([1]; Cremophor EL:ethanol (50:50 v/v) solution, 5 mg/kg transdermal (abdomen) 1 h before 2 μg TPA (back), single mice, 5 mg/kg): 15.0 μg DNA/0.2 and 14.0 μg DNA/0.2 and 13.3 μg DNA/0.2
- cpm/μg DNA ([1]; Tween 80:ethanol (50:50 v/v) solution, 1.9 mg/kg transdermal (abdomen) 1 h before 2 μg TPA (back), single mice and group mean, 1.9 mg/kg): 216.3 cpm/μg DNA and 189.8 cpm/μg DNA
- corrected cpm [1, 6]: 3,114 cpm and 3,150 cpm
- cpm [1, 6]: 3,139 cpm and 3,175 cpm
- μg DNA/0.2 [1, 6]: 14.4 μg DNA/0.2 and 16.6 μg DNA/0.2
- cpm/μg DNA ([1]; carbitol solution, 1.25 mg/kg transdermal (abdomen) 1 h before 2 μg TPA (back), single mice and group mean, 1.25 mg/kg): 270.1 cpm/μg DNA and 341.3 cpm/μg DNA and 287.9 ± 25.2 cpm/μg DNA
- corrected cpm [1, 7]: 6,051 cpm and 10,170 cpm
- cpm [1, 7]: 6,086 cpm and 10,205 cpm
- μg DNA/0.2 mL [1, 7]: 22.4 μg DNA/0.2 mL and 29.8 μg DNA/0.2 mL
- μg DNA/0.2 mL ([1]; carbitol solution, 1.9 mg/kg transdermal (abdomen) 1 h before 2 μg TPA (back), single mice, 1.9 mg/kg): 18.4 μg DNA/0.2 mL and 11.8 μg DNA/0.2 mL
- cpm/μg DNA ([1]; carbitol solution, 2.5 mg/kg transdermal (abdomen) 1 h before 2 μg TPA (back), single mice and group mean, 2.5 mg/kg): 64.8 cpm/μg DNA and 73.8 cpm/μg DNA and 69.3 ± 6.3 cpm/μg DNA
- corrected cpm [1, 8]: 616 cpm and 649 cpm
- cpm [1, 8]: 651 cpm and 684 cpm
- μg DNA/0.2 mL [1, 8]: 9.5 μg DNA/0.2 mL and 8.8 μg DNA/0.2 mL
- corrected cpm [1, 9]: 5,338 cpm and 5,045 cpm
- cpm [1, 9]: 5,373 cpm and 5,080 cpm
- μg DNA/0.2 mL [1, 9]: 10.0 μg DNA/0.2 mL and 10.8 μg DNA/0.2 mL
- μg DNA/0.2 mL ([1]; ethanol:limonene:isopropyl myristate (81:15:4) solution, 1.5 mg/kg transdermal (abdomen) 1 h before 2 μg TPA (back), single mice and group mean, 1.5 mg/kg): 25.8 μg DNA/0.2 mL and 25.1 μg DNA/0.2 mL
- corrected cpm [1, 10]: 5,854 cpm and 3,703 cpm
- cpm [1, 10]: 5,883 cpm and 3,732 cpm
- μg DNA/0.2 mL ([1]; ethanol:limonene:isopropyl myristate (81:15:4) solution, 2.5 mg/kg transdermal (abdomen) 1 h before 2 μg TPA (back), single mice and group mean (p < 0.05 vs TPA), 2.5 mg/kg): 18.1 μg DNA/0.2 mL and 15.3 μg DNA/0.2 mL
- μg DNA/0.2 mL ([1]; ethanol:limonene:isopropyl myristate (81:15:4) solution, 5 mg/kg transdermal (abdomen) 1 h before 2 μg TPA (back), single mice and group mean (p < 0.05 vs TPA), 5 mg/kg): 15.9 μg DNA/0.2 mL and 17.3 μg DNA/0.2 mL
- cpm/μg DNA ([1]; ethanol:limonene:isopropyl myristate (81:15:4) solution, 5 mg/kg transdermal (abdomen) 1 h before 2 μg TPA (back), single mice and group mean, 5 mg/kg): 532.5 cpm/μg DNA and 603.2 cpm/μg DNA
- corrected cpm [1, 11]: 8,467 cpm and 10,436 cpm
- cpm [1, 11]: 8,496 cpm and 10,465 cpm
- cpm/μg DNA [1, 12]: 135.7 cpm/μg DNA and 98.9 cpm/μg DNA
- μg DNA/0.2 mL [1, 12]: 34.3 μg DNA/0.2 mL and 35.2 μg DNA/0.2 mL
- corrected cpm [1, 13]: 4,655 cpm and 3,481 cpm
- cpm [1, 13]: 4,684 cpm and 3,510 cpm
- μg DNA/0.2 mL ([1]; micronized suspension in ethanol:water:Tween 80 (76:19:5), 2.5 mg/kg transdermal (abdomen) 1 h before 2 μg TPA (back), single mice and group mean (p < 0.02 vs TPA), 2.5 mg/kg): 19.6 μg DNA/0.2 mL and 16.6 μg DNA/0.2 mL
- cpm/μg DNA ([1]; micronized suspension in ethanol:water:Tween 80 (76:19:5), 2.5 mg/kg transdermal (abdomen) 1 h before 2 μg TPA (back), single mice and group mean, 2.5 mg/kg): 109.5 cpm/μg DNA and 139.0 cpm/μg DNA
- corrected cpm [1, 14]: 2,147 cpm and 2,308 cpm
- cpm [1, 14]: 2,176 cpm and 2,337 cpm
- μg DNA/0.2 mL ([1]; micronized suspension in ethanol:water:Tween 80 (76:19:5), 5 mg/kg transdermal (abdomen) 1 h before 2 μg TPA (back), single mice and group mean (p < 0.01 vs TPA), 5 mg/kg): 16.5 μg DNA/0.2 mL and 18.9 μg DNA/0.2 mL
- cpm/μg DNA [2, 15]: 539.8 ± 75.9 cpm/μg DNA
- μg DNA [2, 15]: 15.5 ± 3.0 µg
- cpm/μg DNA [2, 16]: 185.0 ± 38.2 cpm/μg DNA
- μg DNA [2, 16]: 6.0 ± 1.9 µg
- cpm/μg DNA [2, 17]: 208.8 ± 144.2 cpm/μg DNA
- μg DNA [2, 17]: 6.6 ± 2.6 µg
- cpm/μg DNA [2, 18]: 634.3 ± 151.6 cpm/μg DNA
- μg DNA [2, 18]: 6.2 ± 1.0 µg
- cpm/μg DNA [2, 19]: 850.0 ± 256.0 cpm/μg DNA
- μg DNA [2, 19]: 6.3 ± 1.5 µg
- lowest effective oral dose which abolishes TPA-stimulated epidermal hyperplasia ([3H]thymidine incorporation and epidermal DNA content) ([2]; mouse skin, single oral dose): 200 mg/kg
